What was measured:
[1] = Dissociation constant, pKa of the compound
Cytochrome P450 2C9 = Cytochrome P450 2C9 (Homo sapiens, UniProt P11712); test: Binding affinity to CYP2C9
Chain of Cytochrome P450 2C9 (P11712 whole entry): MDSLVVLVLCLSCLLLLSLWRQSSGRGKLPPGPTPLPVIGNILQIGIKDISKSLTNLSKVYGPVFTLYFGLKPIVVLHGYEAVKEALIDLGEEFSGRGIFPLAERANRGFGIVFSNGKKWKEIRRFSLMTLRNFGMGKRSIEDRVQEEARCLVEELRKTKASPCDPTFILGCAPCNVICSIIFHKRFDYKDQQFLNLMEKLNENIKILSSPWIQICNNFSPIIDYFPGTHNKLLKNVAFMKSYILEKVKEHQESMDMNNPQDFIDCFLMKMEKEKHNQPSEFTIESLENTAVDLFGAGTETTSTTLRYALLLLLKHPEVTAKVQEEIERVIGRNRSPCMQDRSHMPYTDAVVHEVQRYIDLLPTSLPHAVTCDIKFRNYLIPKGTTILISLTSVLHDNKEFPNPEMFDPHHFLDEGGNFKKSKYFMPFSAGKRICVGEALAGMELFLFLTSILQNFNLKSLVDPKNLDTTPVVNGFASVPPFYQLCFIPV

SMILES | pKa [1] | Ki (Cytochrome P450 2C9) [nM]
CCc1oc2ccccc2c(=O)c1C(=O)c1cc(Br)c(O)c(Br)c1 | 4.72 | –
Cc1oc2ccccc2c(=O)c1C(=O)c1ccc(O)cc1 | 7.74 | 6740
CCCc1oc2ccccc2c(=O)c1C(=O)c1cc(I)c(O)c(I)c1 | 4.89 | 4.2
CCCc1oc2ccccc2c(=O)c1C(=O)c1cc(I)c(OC)c(I)c1 | – | 44.3
CCc1oc2ccccc2c(=O)c1C(=O)c1cc(I)c(O)c(I)c1 | 4.89 | 23
Cc1oc2ccccc2c(=O)c1C(=O)c1cc(I)c(O)c(I)c1 | 4.89 | 41
CCCc1oc2ccccc2c(=O)c1C(=O)c1ccc(OC)cc1 | – | 3120
CCc1oc2ccccc2c(=O)c1C(=O)c1ccncc1 | – | 4870
CCc1oc2ccccc2c(=O)c1C(=O)c1ccc(O)cc1 | 7.74 | 1420
CCCc1oc2ccccc2c(=O)c1C(=O)c1ccc(O)cc1 | 7.74 | 656
COc1ccc(C(=O)c2c(C)oc3ccccc3c2=O)cc1 | – | 5930
CCc1oc2ccccc2c(=O)c1C(=O)c1ccc(OC)cc1 | – | 6480

Reference: ChEMBL document CHEMBL1157143, “Modeling and synthesis of novel tight-binding inhibitors of cytochrome P450 2C9” (Bioorg Med Chem, 2008)
